{
  "source": "paper PMC10822116",
  "about": "(Drug Design, Development and Therapy, 2024)",
  "key": {"[1]": {"biological_target": "human recombinant BuChE (hBuChE) (Homo sapiens, UniProt P06276)", "sequence (P06276 29-602)": "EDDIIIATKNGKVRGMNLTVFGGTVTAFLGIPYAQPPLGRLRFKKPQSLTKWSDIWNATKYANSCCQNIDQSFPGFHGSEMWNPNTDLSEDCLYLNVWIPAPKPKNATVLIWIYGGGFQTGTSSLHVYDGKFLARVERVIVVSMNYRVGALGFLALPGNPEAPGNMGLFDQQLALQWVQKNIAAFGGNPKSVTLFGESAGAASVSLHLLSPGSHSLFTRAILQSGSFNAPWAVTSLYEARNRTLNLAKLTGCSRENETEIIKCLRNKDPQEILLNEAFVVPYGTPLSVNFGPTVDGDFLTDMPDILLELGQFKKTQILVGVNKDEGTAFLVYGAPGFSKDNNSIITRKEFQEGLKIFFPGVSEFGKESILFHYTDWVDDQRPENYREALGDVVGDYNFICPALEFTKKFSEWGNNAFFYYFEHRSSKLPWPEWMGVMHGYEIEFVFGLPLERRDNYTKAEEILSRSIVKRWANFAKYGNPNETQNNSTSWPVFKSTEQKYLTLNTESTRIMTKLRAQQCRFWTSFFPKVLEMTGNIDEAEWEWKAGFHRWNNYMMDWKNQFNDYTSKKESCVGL", "assay": "BuChE inhibition, Ellman spectrophotometry", "assay_type": "biochemical", "conditions": "stronger than donepezil"}, "eqBuChE": {"biological_target": "eqBuChE (Equus caballus, UniProt P81908)", "sequence (P81908 whole entry)": "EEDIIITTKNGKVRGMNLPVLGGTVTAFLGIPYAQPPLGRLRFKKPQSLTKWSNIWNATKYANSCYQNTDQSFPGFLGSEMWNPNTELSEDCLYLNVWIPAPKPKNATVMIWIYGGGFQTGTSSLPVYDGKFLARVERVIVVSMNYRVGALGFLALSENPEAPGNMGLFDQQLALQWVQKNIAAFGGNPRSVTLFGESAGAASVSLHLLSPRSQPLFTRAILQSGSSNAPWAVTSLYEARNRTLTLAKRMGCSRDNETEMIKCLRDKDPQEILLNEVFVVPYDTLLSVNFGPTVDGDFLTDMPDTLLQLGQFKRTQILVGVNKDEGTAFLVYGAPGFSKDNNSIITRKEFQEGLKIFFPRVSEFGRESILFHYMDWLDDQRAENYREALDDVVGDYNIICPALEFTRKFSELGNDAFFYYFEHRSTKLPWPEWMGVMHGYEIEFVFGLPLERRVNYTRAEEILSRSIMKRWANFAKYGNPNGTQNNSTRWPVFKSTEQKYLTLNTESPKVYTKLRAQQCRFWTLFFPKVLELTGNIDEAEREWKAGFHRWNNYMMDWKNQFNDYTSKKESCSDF", "assay": "BuChE inhibition, Ellman spectrophotometry", "assay_type": "biochemical, equine", "conditions": "more potent than donepezil"}, "PC12 cells": {"test_system": "PC12 cells", "assay": "CCK-8 cytotoxicity in PC12 cells", "assay_type": "cell-based", "conditions": "24 h"}, "[2]": {"test_system": "mice with scopolamine-induced memory impairment", "assay": "Step-down passive avoidance test, scopolamine-induced memory impairment", "assay_type": "in vivo"}, "BV-2 cells": {"test_system": "BV-2 cells", "assay": "CCK-8 cytotoxicity in BV-2 cells", "assay_type": "cell-based", "conditions": "24 h"}, "Kunming mice": {"test_system": "Kunming mice", "assay": "In vivo acute toxicity"}, "[3]": {"conditions": "7d 5, 10, 20 mg/kg oral, scopolamine 3 mg/kg i.p., dose-dependent"}, "[4]": {"conditions": "high-dose 20 mg/kg oral vs donepezil 10 mg/kg"}, "[5]": {"conditions": "medium-dose 10 mg/kg oral vs donepezil 10 mg/kg"}},
  "data": [
    {"smiles": "C#CCN(C)CCCCCCCOc1cccc(CN(C)c2c3c(nc4ccccc24)CCCC3)c1", "note": "[Compound 6f, N-methyl-N-(3-((7-(methyl(prop-2-yn-1-yl)amino)heptyl)oxy)benzyl)-1,2,3,4-tetrahydroacridin-9-amine]", "values": [
      {"measurement": "hBuChE potency relative to donepezil", "setting": "[1]", "value": "approximately 7 fold"}
    ]},
    {"smiles": "C#CCN(C)CCCCCCCOCc1ccc(CN(C)c2c3c(nc4ccccc24)CCCC3)cc1", "note": "[Compound 7e, N-methyl-N-(4-(((7-(methyl(prop-2-yn-1-yl)amino)heptyl)oxy)methyl)benzyl)-1,2,3,4-tetrahydroacridin-9-amine]", "values": [
      {"measurement": "eqBuChE potency relative to donepezil", "setting": "eqBuChE", "value": "approximately 18 fold"}
    ]},
    {"smiles": "C#CCN(C)CCCCCCOCc1ccc(CN(C)c2c3c(nc4ccccc24)CCCC3)cc1", "note": "[Compound 7d, N-methyl-N-(4-(((6-(methyl(prop-2-yn-1-yl)amino)hexyl)oxy)methyl)benzyl)-1,2,3,4-tetrahydroacridin-9-amine]", "values": [
      {"measurement": "Effect on cell viability", "setting": "PC12 cells; PC12, 0.325 to 2.5 μM", "value": "no significant effect"},
      {"measurement": "Effect on cell viability", "setting": "PC12 cells; PC12, above 2.5 μM", "value": "decrease in cell viability"},
      {"measurement": "Latency in step-down test", "setting": "[2]; [3]", "value": "prolong the latency"},
      {"measurement": "Number of errors in step-down test", "setting": "[2]; [3]", "value": "reduce the number of errors"},
      {"measurement": "Latency compared with donepezil", "setting": "[2]; [4]", "value": "longer latency"},
      {"measurement": "Number of errors compared with donepezil", "setting": "[2]; [4]", "value": "fewer errors"},
      {"measurement": "Number of errors compared to model group", "setting": "[2]; low-dose 5 mg/kg oral, Kruskal–Wallis test, p = 0.2219", "value": "not statistically significant"},
      {"measurement": "Latency compared with donepezil", "setting": "[2]; [5]", "value": "similar"},
      {"measurement": "Number of errors compared with donepezil", "setting": "[2]; [5]", "value": "similar"},
      {"measurement": "Cytotoxicity", "setting": "BV-2 cells; BV-2, 10 μM", "value": "> 50", "unit": "%"},
      {"measurement": "Effect on cell viability", "setting": "BV-2 cells; BV-2, 0.325 to 2.5 μM", "value": "no significant effect"},
      {"measurement": "Effect on cell viability", "setting": "BV-2 cells; BV-2, above 2.5 μM", "value": "decrease in cell viability"},
      {"measurement": "Death, abnormal behavior or dietary changes", "setting": "Kunming mice; KM mice, oral 625, 1250 and 2500 mg/kg, monitored 4 h", "value": "No such effects were observed"},
      {"measurement": "Average body weight change", "setting": "Kunming mice; KM mice, single oral dose 625, 1250, 2500 mg/kg, 14 days, vs control group", "value": "comparable to that in the control group"},
      {"measurement": "Tissue damage (HE staining of heart, liver, kidney, lung, brain)", "setting": "Kunming mice; mice, 2500 mg/kg oral, day 14", "value": "no obvious signs of tissue damage"}
    ]}
  ]
}
